Data on 1 molecule can be found in patent US4629627A, “Antiviral substance and the manufacturing method thereof” (priority 1978, dated 1986).

Data set [1] deals with liver cancer in rats. Conditions: rat's liver; cited from earlier work.
Data set [2] deals with liver cancer in rats. As to the kind of experiment: Experiment 3: depression of liver cancer induced by 3'-Me-DAB in rats. The format is in vivo, Wister male rats. From the text: The present inventor asked Prof. Nobuhiko Kanno, Biological Laboratory, Dept. of Pharmacology, Toyama Medical and Pharmacologival University, to test the activity of the present antiviral substance to depress the liver cancer in rats on pathogens of viruses.
1. Test animals: Wister male rats of 4 weeks of age were fed for 5 days as usual and tested.
2. Carcinogenic substance: 3'-methyl-4-dimethyl amino azobenzene (3'-Me-DAB) [drawing 1]
(1) Control group: standard food
(2) L group: standard food+L
(3) L+DAB group 0.06% 3'-Me-DAB containing food+L
(4) DAB group 0.06% 3'-Me-DAB containing food
Note: L: a frozen dry powder of the extract of the nutrient medium and tissue-medium of Lentinus edodes DAB: 3'-Me-DAB
4. Quantity and the method of giving the freeze-dried powder of the extract of the nutrient medium and tissue-medium of Lentinus edodes […]
The freeze-dried powder of the nutrient medium and tissue-medium of Lentinus edodes was dissolved in physiological salt water, and given intraperitoneally; the same dose of physiological salt water was similarly given to the control group.

As to `Cc1cccc(N=Nc2ccc(N(C)C)cc2)c1` [3'-Me-DAB, 3'-methyl-4-dimethyl amino azobenzene], in the data set with liver cancer in rats [1], the carcinogenic property entry was “specific and strong carcinogenic property”. Moreover, the “liver finding at autopsy” value in the data set with liver cancer in rats [2] (dissection, after 14 and 18 weeks) is reported as “fine yellowish white particles which seemed to be cancerous tissue were seen all over the liver”. Moreover, the “microscopic findings of the liver tissue” value with liver cancer in rats [2] (hematoxin-eosin) was “severe disarrangement of cells and the glandular structure specific to liver cancer (adeno carcinoma)”. Besides, in the data set with liver cancer in rats [2] (microscopic observation, within about 5 and 15 weeks), the depilation result is recorded as “depilation appeared on the abdomen in some a rats”.
